A short description of data set [1]: Toxicity in C57 mouse assessed as effect on lung structure at 5 to 10 mg/kg administered continuously for 2 weeks by H and E staining based analysis. The class given is organism-based. The settings on record: in vivo, 336 h, dose 5-10 mg/kg.
Data set [2] has as its system Mus musculus. Description: Antidepressant activity in reserpine induced depressive mouse model assessed as 5-HT level in brain at 5 mg/kg preadministered with reserpine for 3 days followed by compound addition from day 4 to 10 by LC-MS analysis (reference value: 186.46 ng/ml). The class given is functional. The note with it: time 7 day.
Data set [3] concerns Mus musculus. Kind of data set: Antidepressant activity in chronic unpredictable mild stress induced depressive C57 mouse model assessed as reduction in neuronal cell damage in hippocampus at 5 to 10 mg/kg administered continuously for 2 weeks post 5 weeks of chronic unpredictable mild stress by H and E staining based analysis. The class given is functional, organism-based. The settings on record: dose 5-10 mg/kg.

The nature of data set [4]: Toxicity in C57 mouse assessed as necrosis in liver at 5 to 10 mg/kg administered continuously for 2 weeks by H and E staining based analysis. The class given is organism-based. The settings on record: in vivo, 336 h, dose 5-10 mg/kg.
Data set [5] has as its system Mus musculus. Kind of data set: Antidepressant activity in chronic unpredictable mild stress induced depressive C57 mouse model assessed as reduction in resting time at 5 to 10 mg/kg administered continuously for 2 weeks post 5 weeks of chronic unpredictable mild stress by tail suspension test. The note with it: dose 5-10 mg/kg. The class given is functional, organism-based.

Data set [6] can be described thus: Toxicity in C57 mouse assessed as effect in spleen pathology at 5 to 10 mg/kg administered continuously for 2 weeks by H and E staining based analysis. The class given is organism-based. The note with it: in vivo, 336 h, dose 5-10 mg/kg.
For a further data set, the system named is Danio rerio. Description: Antidepressant activity in reserpine-induced depressive zebrafish model assessed as increase in total distance traveled at 0.5 to 1 uM preadministered with reserpine for 40 mins followed by compound administration and measured after 7 days by open field test. The class given is functional, organism-based. The settings on record: dose 0.5-1 µM, time 7.0 day.

The test system of data set [7] is Mus musculus. Kind of data set: Antidepressant activity in chronic unpredictable mild stress induced depressive C57 mouse model assessed as decrease in SERT expression in brain at 5 to 10 mg/kg administered continuously for 2 weeks post 5 weeks of chronic unpredictable mild stress by Western blot analysis. The note with it: dose 5-10 mg/kg. The class given is functional, organism-based.

The nature of data set [8]: Toxicity in C57 mouse assessed as effect on liver size at 5 to 10 mg/kg administered continuously for 2 weeks by H and E staining based analysis. The note with it: in vivo, 336 h, dose 5-10 mg/kg. The class given is organism-based.
Data set [9] has as its system Mus musculus. Description: Antidepressant activity in chronic unpredictable mild stress induced depressive C57 mouse model assessed as increase in body weight at 5 to 10 mg/kg administered continuously for 2 weeks post 5 weeks of chronic unpredictable mild stress. The class given is functional, organism-based. The note with it: dose 5-10 mg/kg.
Data set [10] can be described thus: Toxicity in C57 mouse assessed as effect on spleen structure at 5 to 10 mg/kg administered continuously for 2 weeks by H and E staining based analysis. The class given is organism-based. The note with it: in vivo, 336 h, dose 5-10 mg/kg.
Data set [11] can be described thus: Toxicity in C57 mouse assessed as effect on kidney pathology at 5 to 10 mg/kg administered continuously for 2 weeks by H and E staining based analysis. The note with it: in vivo, 336 h, dose 5-10 mg/kg. The class given is organism-based.
Data set [12] concerns PC-12. Description: Neuroprotective activity against corticosterone-induced cell injury in rat PC-12 cells assessed as increase in cell viability at 0.1 to 1 uM incubated for 24 hrs by CCK8 assay. The class given is functional, cell-based. The note with it: dose 0.1-1 µM. In general terms: Formazan colour is commonly taken as a measure of viable cells.
Data set [13] relates to Mus musculus. Description: Antidepressant activity in reserpine induced depressive mouse model assessed as 5-HT level in brain at 10 mg/kg preadministered with reserpine for 3 days followed by compound addition from day 4 to 10 by LC-MS analysis (reference value: 186.46 ng/ml). The class given is functional. The note with it: time 7 day.
Data set [14] in a line: Toxicity in C57 mouse assessed as necrosis in heart at 5 to 10 mg/kg administered continuously for 2 weeks by H and E staining based analysis. The class given is organism-based. The settings on record: in vivo, 336 h, dose 5-10 mg/kg.
The nature of data set [15]: Toxicity in C57 mouse assessed as effect on liver morphology at 5 to 10 mg/kg administered continuously for 2 weeks by H and E staining based analysis. The class given is organism-based. The note with it: in vivo, 336 h, dose 5-10 mg/kg.
The test system of data set [16] is PC-12. Description: Neuroprotective activity against corticosterone-induced cell injury in rat PC-12 cells assessed as increase in nitric oxide content at 0.2 uM by absorbance based assay. The class given is functional.

Active and inactive are the calls of the source. The rule behind the calls is not given here.

As for `O=C1c2ccccc2-c2nccc3cc(OCCCO[N+](=O)[O-])cc1c23`, the Activity result in data set [1] was “Non-Toxic”; in the data set with Mus musculus [2] it was 508.39 ng/mL; in data set [4], “Non-Toxic”; in [6], “Non-Toxic”; in data set [8], “Non-Toxic”; in data set [10] it was “Non-Toxic”. Further, the Activity result in [11] was “Non-Toxic”; with Mus musculus [13] it was 643.87 ng/mL; in data set [14], “Non-Toxic”; in data set [15], “Non-Toxic”. For the same compound, the result with Mus musculus [3], with Mus musculus [5], in the data set with Danio rerio, with Mus musculus [7], in the data set with Mus musculus [9] and with PC-12 [12] was Active. Further, the result in the data set on PC-12 [16] was Active.
